The experiment deals with CEM cells HIV-1 protection, formazan growth assay. Briefly: NCI AIDS Antiviral Assay. The following applies: for IC50: measured here: growth of uninfected CEM cells. In outline:
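Protection of CEM cells against HIV-1 measured as cell growth via soluble formazan read-out, with five concentrations tested on both infected and uninfected cells; failure to protect may reflect toxicity.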

Structures are written as SMILES. Values joined by “and” are separate entries in the source; they are usually repeats but may differ in a detail not shown here. Identical values can stand only once. Active and inactive are the calls of the source.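 The calls were made as follows: active = compounds giving half or more protection of infected cells from virus-caused growth loss, again on retest; inactive = the rest.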

`CCOc1snc(C(Cl)(Cl)Cl)c1Cl`: the EC50 was greater than 200 µM and the IC50 is greater than 200 µM. In the case of `c1ccc([As](c2ccccc2)c2cccc[c]2[Bi]([c]2ccccc2)[c]2ccccc2)cc1`, the EC50 is greater than 10.7 µM and the IC50 was greater than 10.7 µM. With `N#Cc1[nH]c(=O)n(-c2ccc([N+](=O)[O-])cc2)c1N`, the EC50 is greater than 200 µM and the IC50 is greater than 200 µM. `O=C1CC2C(=O)N(Cc3ccccc3)C1C=C2S(=O)(=O)c1ccccc1` (stereo not given): the outcome was inactive. With `C[C@H](O)C(=O)SC[C@H](NC(=O)CC[C@@H](N)C(=O)O)C(=O)NCC(=O)O`, the EC50 was greater than 200 µM and the IC50 was greater than 200 µM. In the case of `CC(=O)N/C(=C\c1ccc(Cc2nc3c([nH]2)C(=O)c2ccccc2C3=O)cc1)c1nc2c([nH]1)C(=O)c1ccccc1C2=O`, the EC50 was greater than 12.6 µM and the IC50 is greater than 12.6 µM. With `COC(=O)C1(C)C=C(Nc2ccccc2)C(=O)N1c1ccccc1` (stereo not given), the EC50 was greater than 6.17 µM and the IC50 was greater than 6.17 µM. With `COc1ccc(N=C2SCC(=O)N2NC(=O)CN2C(=O)c3ccccc3C2=O)cc1`, the EC50 was greater than 20.4 µM and the concentration for half-maximal inhibition (IC50) amounted to 17.4 µM. For `Nc1nc(N)c(N=O)c(Nc2ccc(O)cc2)n1`, in that order: greater than 200 µM and 170 µM.

Turning to `O=C(Nc1ccc(C(=O)Nc2ccc(C3=NCCCN3)cc2)cc1)Nc1ccc(C2=NCCCN2)cc1`, the EC50 is greater than 200 µM and the IC50 was found to be 17 µM. For `CCOC(=O)C(CCC1OCCO1)C(C)=O` (stereo not given) the same measures were greater than 200 µM and greater than 200 µM. Regarding `CCCCC1(c2sccc2C(O)(C(F)F)C(F)(F)F)NC(C)(C)CO1` (stereo not given), the EC50 was greater than 200 µM and the IC50 was 126 µM. Turning to `Clc1ccc(SSc2ccccc2)cc1`, the outcome was inactive. Still for that read-out and setting: under `Cc1ccnc2c1C(=O)C(=O)C=C2N1CCC(C)CC1` stands “inactive”. Regarding `NNC(=S)N/N=C(\C(=O)Nc1cccc(O)c1)C1C(=O)NC(=S)NC1=O`, the EC50 is greater than 631 µM and the IC50 was determined as 447 µM. For `c1ccc(OCCSCCCCCCCCCCSCCOc2ccccc2)cc1`, in that order: greater than 8.51 µM and greater than 8.51 µM. As to `CC(=O)NNc1ncc(C(=O)/C=C/c2ccccc2C)s1`, the EC50 is greater than 22.4 µM and the IC50 was greater than 22.4 µM. For `COc1ccc2c(c1)CCN=C2c1ccccc1CCCCl`, the EC50 was greater than 200 µM and the IC50 turned out to be 2.34 µM. For the compound `CC(C)SC1CC2C(CC1(C)O)C2(C)C` (stereo not given), the EC50 is greater than 200 µM; the IC50 is > 200 µM and 91.2 µM. As for `O=C(O)CC1(CC(=O)Nc2nccs2)CCCCC1`, the EC50 was greater than 126 µM and the IC50 is greater than 126 µM.

As to `CCc1ccc2c(c1)CC1(C2)Cc2cc3c(cc2C1)C(=O)CC3` (stereo not given), the EC50 is greater than 200 µM and the IC50 turned out to be 12.6 µM. For `Cn1c2c(c3cc(Cl)cc(Cl)c31)-c1ncncc1CC2`, in that order: greater than 61.7 µM and greater than 61.7 µM. In the case of `NC(CCC(=O)NCCCC(=O)O)C(=O)O` (stereo not given), the EC50 was greater than 85.1 µM and the IC50 was greater than 85.1 µM.

For the compound `CO[C@@]12[C@@H]3N[C@@H]3CN1C1=C(C(=O)C(NCCc3ccccn3)=C(C)C1=O)[C@@H]2COC(N)=O`, the EC50 is greater than 200 µM and the IC50 was determined as 2 µM. For `COc1ccc2cc(C(=O)NCCCNC(=O)c3ccc4cc(OC)ccc4c3)ccc2c1`, the outcome was inactive. As for `O=CNNC(=O)Nc1ccc(Cl)cc1`, the EC50 was greater than 200 µM and the IC50 is greater than 200 µM.

Turning to `CC(C)C1CC(CO)(CNc2nc(N)nc(Cl)c2/C=N\O)C1` (stereo not given), the EC50 is greater than 20 µM and the IC50 is 0.0331 µM. For `COC(=O)c1c(O)c(C#N)c2[nH]c3ccccc3n2c1=O` the same measures were greater than 100 µM and greater than 100 µM. For `COc1ccc(SSc2ccc(OC)cc2)cc1`, in that order: greater than 200 µM and greater than 200 µM. Compound `CC1CC(C)(C)NCCNC(C)CC(C)(C)NCCN1` (stereo not given) gave an EC50 of 195 µM and an IC50 greater than 200 µM. Take `CCCCCCCCCCCCCCCCCCSCC12c3ccccc3C(c3ccccc31)C(COS(=O)(=O)O)C2COS(=O)(=O)O` (stereo not given): the EC50 is greater than 100 µM and the IC50 amounted to 64.6 µM. For `CC1=CCCC(C)C1(C)CC/C(C)=C/CC/C(C)=C/CS(=O)(=O)CCN=C(N)N` (stereo not given), in that order: greater than 61.7 µM and 10.7 µM. Turning to `CCc1ccccc1C(C(=O)NC1CN2CCC1CC2)c1ccsc1` (stereo not given), the EC50 is greater than 200 µM and the IC50 was 61.7 µM. For `O=c1[nH]c2ccccc2c(O)c1Cc1ccccc1` the same measures were greater than 200 µM and greater than 200 µM. For `O=C(O)C(O)C(O)C(=O)O` (stereo not given) the same measures were greater than 200 µM and greater than 200 µM. For `O=C1NC(=S)N/C1=C\c1ccc(Cl)cc1`, in that order: greater than 200 µM and 105 µM.

Regarding `C(=C/[PH+](c1ccccc1)c1ccccc1)/[PH+](c1ccccc1)c1ccccc1.O=C([O-])C(F)(F)F.[C-]#[O+].[C-]#[O+].[C-]#[O+].[Mn]`, the EC50 was greater than 8.13 µM and the IC50 is 0.589 µM. For `CC#N.CC#N.COC(=O)[C@@H]1COC(=O)[N-]1.COC(=O)[C@@H]1COC(=O)[N-]1.COC(=O)[C@@H]1COC(=O)[N-]1.COC(=O)[C@@H]1COC(=O)[N-]1.[Rh+2].[Rh+2]`, in that order: greater than 200 µM and greater than 200 µM. For `C=C1CCC(=O)NC1=O`, the outcome was inactive. On to `COc1cccc(N2C(=O)C3c4[nH]c5ccc(C)cc5c4C4CCC(C)CC4C3C2=O)c1` (stereo not given), for which the EC50 was greater than 100 µM and the IC50 was greater than 100 µM. In the case of `CN=C(N)c1ncn(C2OC(CO)C(O)C2O)n1` (stereo not given), the outcome was inactive.

Take `C1=Cc2nc1c(-c1ccccc1)c1ccc([nH]1)c(-c1ccccc1)c1nc(c(-c3ccccc3)c3ccc([nH]3)c2-c2ccccc2)C=C1`: the EC50 was greater than 2.34 µM and the IC50 was greater than 2.34 µM. In the case of `CC1=NN(C(=O)c2ccc(Cl)cc2)C(=O)/C1=C/c1ccco1`, the EC50 was greater than 22.9 µM and the IC50 was greater than 22.9 µM. For `COc1cc(C)cc2c1C(=O)C(Br)CC2` (stereo not given), the outcome was inactive. Take `N#Cc1nc(COCCOCc2ccccc2)oc1N`: the EC50 is greater than 110 µM and the IC50 was determined as 107 µM. On to `Cc1ccc(S(=O)(=O)N2CC3OC(C)(C)OC3C2CO)cc1` (stereo not given), for which the result was inactive.

Take `COC1/C=C/OC2(C)Oc3c(C)c(O)c4c(c3C2=O)C(=O)C=C(NC(=O)/C(C)=C\C=C\C(C)C(OC=O)C(C)C(O)C(C)C(OC(C)=O)C1C)C4=O` (stereo not given): the EC50 was greater than 200 µM and the concentration for half-maximal inhibition (IC50) was found to be 7.41 µM.

Regarding `CN(C)CC/C(=N\Nc1c(F)c(F)c(F)c(F)c1F)c1ccccc1`, the result was inactive.

In the case of `CC(C)(C)/C(O)=C\c1nc2cc(F)c(F)cc2[nH]c1=O`, the EC50 was greater than 200 µM and the IC50 was 182 µM.

Consider `CCOC(=O)C1=C(O)c2ccccc2S(=O)(=O)N1C` (tested in a mixture with another compound), for which the EC50 was greater than 123 µM and the IC50 is 110 µM. For `COC(=O)C(=O)C(C(=O)OC)C(=O)C(=O)Nc1c(C)cccc1C` (stereo not given), in that order: greater than 204 µM and greater than 204 µM.

Turning to `Cc1ccc(S(=O)(=O)OCC2OC(CCCO)C/C([Si](C)(C)C)=C\CC2Cl)cc1` (stereo not given), the EC50 is greater than 8.13 µM and the IC50 was greater than 8.13 µM. As for `O=C(O)C(Oc1ccc2cc(Br)ccc2c1)C(=O)O`, the result was inactive. Same read-out and setting: the result for `CC1(C)CCCC(C)(C2CCC3(C)C2C(O)CC2C4(C)CCC(O)C(C)(C)C4C(O)CC23C)O1` (stereo not given) reads “inactive”. With `O=C(/C=C/c1ccco1)c1cccc(C(=O)/C=C/c2ccco2)n1`, the EC50 was greater than 200 µM and the IC50 was 9.55 µM. For `COc1ccc(N2C(=O)C3c4[nH]c5ccc(OCc6ccccc6)cc5c4C4CCC(C(C)(C)C)CC4C3C2=O)cc1` (stereo not given) the same measures were greater than 200 µM and 16.6 µM. For `CC(=O)c1cccc(C(C)=O)c1N=Cc1ccc(O)cc1`, the result was inactive. On to `COC(=O)C1(C)NCCc2c1[nH]c1ccccc21` (stereo not given), for which the EC50 was greater than 331 µM and the IC50 is greater than 331 µM. Take `Cc1c2[nH]c3ccc(Br)cc3c2c(C)c2[nH]ccc(=O)c12`: the EC50 was greater than 3.31 µM and the IC50 was greater than 3.31 µM. Take `CCOC(=O)CSc1nnc(CSc2nc(-c3ccccc3)c(-c3ccccc3)[nH]2)n1-c1ccccc1`: the EC50 was greater than 13.5 µM and the IC50 was greater than 13.5 µM. As for `CC1=N/C(=C\c2ccc(Cl)cc2)C(=O)O1`, the EC50 was greater than 32.4 µM and the IC50 was greater than 32.4 µM. Regarding `CC(CCC(=O)O)c1ccc(Br)cc1` (stereo not given), the result was inactive. For the compound `NC(CCSCc1ccccc1)P(=O)(O)O` (stereo not given), the EC50 is greater than 200 µM and the IC50 was greater than 200 µM. As for `N#C/C(=C\c1c(Cl)cccc1Cl)c1nc2ccccc2[nH]1`, the EC50 was greater than 200 µM and the IC50 worked out at 24.5 µM. For `COCn1cnc2c(=O)n(-c3ccc(C)cc3)c(=S)n(-c3ccc(C)cc3)c21` the same measures were greater than 200 µM and 138 µM.

For the compound `NC(=O)C(=Cn1c(=S)[nH]c2ccc([N+](=O)[O-])cc21)C(N)=O`, the EC50 was greater than 200 µM and the IC50 was greater than 200 µM.

`COC(=O)/C(=N\NC(=O)c1ccccc1O)C(C#N)c1ccc(Cl)cc1` (stereo not given): the EC50 is greater than 479 µM and the IC50 worked out at 0.912 µM. For `N=c1c2ccccc2nc2oc3cc([N+](=O)[O-])ccc3n12`, in that order: greater than 195 µM and 138 µM. Regarding `CC1(c2ccccc2)CCN(C2CC2)CO1` (stereo not given), the EC50 is greater than 200 µM and the IC50 stood at 23.4 µM. For `CC1S(=O)(=O)OCCOS1(=O)=O` the same measures were greater than 1150 µM and 123 µM. As to `CC(C)COC(=O)N1N=NC2C3CC(=O)C(O3)C21` (stereo not given), the EC50 is greater than 708 µM and the IC50 is 123 µM. For `Nn1c(CCCCCCCCc2nnc(COc3ccc(Cl)cc3Cl)n2N)nnc1COc1ccc(Cl)cc1Cl`, in that order: greater than 200 µM and 42.7 µM. For `CCOC(=O)c1ccc(CSc2ccc(N)cc2)cc1` the same measures were greater than 457 µM and 240 µM. For `N#C/C(=C\c1ccccc1)c1ccc(F)cc1`, in that order: greater than 200 µM and 53.7 µM.

By EC50 is commonly meant the concentration at which the effect is half-maximal. As usually defined, the IC50 is the concentration that gives 50% inhibition.

The values above are taken from PubChem BioAssay AID179 (DTP/NCI, 2004).
